Data taken from patent US20140073634A1 (Institute For Applied Cancer Science/The University of …, priority 2012, published 2014).

System: 293T-HRE-GFP-luc cells
Assay: Cell-based reporter assay for IC50 determinations (HRE-luciferase, hypoxia)
Conditions: 6 h, 6 hrs hypoxia (1% O2), luminescence
Procedure, shortened: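 293T-HRE-GFP-luc cells were pre-incubated with serially diluted compounds for 30 min under normoxia, then held 6 hrs in hypoxia (1% O2, 37° C). HRE-driven luciferase read by Steadylite Plus luminescence; IC50 from four-parameter logistic fit.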

| Structure (SMILES) | IC50 [nM] |
| --- | --- |
| COCCOc1cccc(Cn2cc(-c3noc(-c4cnc(OCCOC)nc4)n3)ccc2=O)c1 [Example 239, 1-{[3-(2-methoxyethoxy)phenyl]methyl}-5-{5-[2-(2-methoxyethoxy)pyrimidin-5-yl]-1,2,4-oxadiazol-3-yl}-1,2-dihydropyridin-2-one] | 100 to 1000 |
| COCCOc1cccc(Cn2cc(-c3noc(-c4cnc(OCC(F)(F)F)nc4)n3)ccc2=O)c1 [Example 240, 1-{[3-(2-methoxyethoxy)phenyl]methyl}-5-{5-[2-(2,2,2-trifluoroethoxy)pyrimidin-5-yl]-1,2,4-oxadiazol-3-yl}-1,2-dihydropyridin-2-one] | < 100 |
| COCCOc1cccc(Cn2cc(-c3noc(-c4cnc(OC(C)C)nc4)n3)ccc2=O)c1 [Example 241, 1-{[3-(2-methoxyethoxy)phenyl]methyl}-5-{5-[2-(propan-2-yloxy)pyrimidin-5-yl]-1,2,4-oxadiazol-3-yl}-1,2-dihydropyridin-2-one] | < 100 |
| COCCOc1cccc(Cn2cc(-c3noc(-c4cnc(N5CCOCC5)nc4)n3)ccc2=O)c1 [Example 242, 1-{[3-(2-methoxyethoxy)phenyl]methyl}-5-{5-[2-(morpholin-4-yl)pyrimidin-5-yl]-1,2,4-oxadiazol-3-yl}-1,2-dihydropyridin-2-one] | < 100 |
| COCCOc1cccc(Cn2cc(-c3noc(-c4cnc(N5CCC(C)(C)CC5)nc4)n3)ccc2=O)c1 [Example 243, 5-{5-[2-(4,4-dimethylpiperidin-1-yl)pyrimidin-5-yl]-1,2,4-oxadiazol-3-yl}-1-{[3-(2-methoxyethoxy)phenyl]methyl}-1,2-dihydropyridin-2-one] | < 100 |
| COCCOc1cccc(Cn2cc(-c3noc(-c4cnc(C5CC5)nc4)n3)ccc2=O)c1 [Example 244, 5-[5-(2-cyclopropylpyrimidin-5-yl)-1,2,4-oxadiazol-3-yl]-1-{[3-(2-methoxyethoxy)phenyl]methyl} 1,2-dihydropyridin-2-one] | < 100 |
| CNc1ncc(-c2nc(-c3ccc(=O)n(Cc4cccc(OCCOC)c4)c3)no2)cn1 [Example 245, 1-{[3-(2-methoxyethoxy)phenyl]methyl}-5-{5-[2-(methylamino)pyrimidin-5-yl]-1,2,4-oxadiazol-3-yl}-1,2-dihydropyridin-2-one] | 100 to 1000 |
| COCCOc1cccc(Cn2cc(-c3noc(-c4cnc(NCC(C)C)nc4)n3)ccc2=O)c1 [Example 246] | < 100 |
| COCCOc1cccc(Cn2cc(-c3noc(-c4cnc(NCC(C)(C)C)nc4)n3)ccc2=O)c1 [Example 247, 5-(5-{2-[(2,2-dimethylpropyl)amino]pyrimidin-5-yl}-1,2,4-oxadiazol-3-yl)-1-{[3-(2-methoxyethoxy)phenyl]methyl}-1,2-dihydropyridin-2-one] | < 100 |
| COCCOc1cccc(Cn2cc(-c3noc(-c4cnc(NC(C)C)nc4)n3)ccc2=O)c1 [Example 248, 1-{[3-(2-methoxyethoxy)phenyl]methyl}-5-(5-{2-[(propan-2-yl)amino]pyrimidin-5-yl}-1,2,4-oxadiazol-3-yl)-1,2-dihydropyridin-2-one] | < 100 |
| COCCOc1cccc(Cn2cc(-c3noc(-c4cnc(NC(C)(C)C)nc4)n3)ccc2=O)c1 [Example 249, 5-{5-[2-(tert-butylamino)pyrimidin-5-yl]-1,2,4-oxadiazol-3-yl}-1-{[3-(2-methoxyethoxy)phenyl]methyl}-1,2-dihydropyridin-2-one] | < 100 |
| COCCOc1cccc(Cn2cc(-c3noc(-c4cnc(N5CCS(=O)(=O)CC5)nc4)n3)ccc2=O)c1 [Example 250, 5-(5-(2-(1,1-dioxidothiomorpholino)pyrimidin-5-yl)-1,2,4-oxadiazol-3-yl)-1-(3-(2-methoxyethoxy)benzyl)pyridin-2(1H)-one] | 100 to 1000 |
| O=c1ccc(-c2cc(-c3ccc(OC(F)(F)F)cc3)no2)cn1Cc1cccc(N2CCS(=O)(=O)CC2)c1 [Example 251, 1-(3-(1,1-dioxidothiomorpholino)benzyl)-5-(3-(4-(trifluoromethoxy)phenyl)isoxazol-5-yl)pyridin-2(1H)-one] | < 100 |
| O=c1ccc(-c2cc(-c3ccc(OC(F)(F)F)cc3)no2)cn1Cc1cccc(N2CCCS2(=O)=O)c1 [Example 252, 1-(3-(1,1-dioxidoisothiazolidin-2-yl)benzyl)-5-(3-(4-(trifluoromethoxy)phenyl)isoxazol-5-yl)pyridin-2(1H)-one] | < 100 |
| O=c1ccc(-c2cc(-c3ccc(OC(F)(F)F)cc3)no2)cn1Cc1cccc(NC2CCS(=O)(=O)CC2)c1 [Example 253, 1-(3-((1,1-dioxidotetrahydro-2H-thiopyran-4-yl)amino)benzyl)-5-(3-(4-(trifluoromethoxy)phenyl)isoxazol-5-yl)pyridin-2(1H)-one] | < 100 |
| O=c1ccc(-c2cc(-c3ccc(OC(F)(F)F)cc3)no2)cn1Cc1cccc(NC2CCCS(=O)(=O)C2)c1 (centres unmarked) [Example 254, 1-(3-((1,1-dioxidotetrahydro-2H-thiopyran-3-yl)amino)benzyl)-5-(3-(4-(trifluoromethoxy)phenyl)isoxazol-5-yl)pyridin-2(1H)-one] | < 100 |
| CC(C)c1ccc(-c2cc(-c3ccc(=O)n(Cc4cccc(N5CCC(S(C)(=O)=O)CC5)c4)c3)no2)cc1 [Example 255, 5-(5-(4-isopropylphenyl)isoxazol-3-yl)-1-(3-(4-(methylsulfonyl)piperidin-1-yl)benzyl)pyridin-2(1H)-one] | < 100 |
| COCCOc1cccc(Cn2cc(-c3nnc(-c4ccc(OC(F)F)cc4)o3)ccc2=O)c1 [Example 257, 5-{5-[4-(difluoromethoxy)phenyl]-1,3,4-oxadiazol-2-yl}-1-{[3-(2-methoxyethoxy)phenyl]methyl}-1,2-dihydropyridin-2-one] | 100 to 1000 |
| COCCOc1cccc(Cn2cc(-c3nnc(-c4ccc(S(=O)(=O)C(F)(F)F)cc4)o3)ccc2=O)c1 [Example 258, 1-{[3-(2-methoxyethoxy)phenyl]methyl}-5-[5-(4-trifluoromethanesulfonylphenyl)-1,3,4-oxadiazol-2-yl]-1,2-dihydropyridin-2-one] | 100 to 1000 |
| CS(=O)(=O)CCCOc1cccc(Cn2cc(-c3nnc(-c4ccc(S(=O)(=O)C(F)(F)F)cc4)o3)ccc2=O)c1 [Example 259, 1-{[3-(3-methanesulfonylpropoxy)phenyl]methyl}-5-[5-(4-trifluoromethanesulfonylphenyl)-1,3,4-oxadiazol-2-yl]-1,2-dihydropyridin-2-one] | < 100 |
| CC(C)(O)c1cccc(Cn2cc(-c3nnc(-c4ccc(S(=O)(=O)C(F)(F)F)cc4)o3)ccc2=O)c1 [Example 260, 1-{[3-(2-hydroxypropan-2-yl)phenyl]methyl}-5-[5-(4-trifluoromethanesulfonylphenyl)-1,3,4-oxadiazol-2-yl]-1,2-dihydropyridin-2-one] | 100 to 1000 |
| CC(C)(O)c1cccc(Cn2cc(-c3nnc(-c4ccc(OC(F)F)cc4)o3)ccc2=O)c1 [Example 261, 5-{5-[4-(difluoromethoxy)phenyl]-1,3,4-oxadiazol-2-yl}-1-{[3-(2-hydroxypropan-2-yl)phenyl]methyl}-1,2-dihydropyridin-2-one] | 100 to 1000 |
| CS(=O)(=O)CCCOc1cccc(Cn2cc(-c3nnc(-c4ccc(OC(F)F)cc4)o3)ccc2=O)c1 [Example 262, 5-{5-[4-(difluoromethoxy)phenyl]-1,3,4-oxadiazol-2-yl}-1-{[3-(3-methanesulfonylpropoxy)phenyl]methyl}-1,2-dihydropyridin-2-one] | < 100 |
